Measured values reported in article PMC3733449 (Bioorganic & medicinal chemistry, 2013).
Like-named read-outs stand apart in the source and are kept apart here. Marks after values point to notes of the source that are not given here.

Legend:
[1] = target: T1, human D3 receptors expressed in stably transfected HEK 293 cells (Homo sapiens, UniProt P35462); assay: Forskolin-dependent whole cell adenylyl cyclase inhibition assay, D3; type: cell-based; conditions: result in words
[2] = target: human D3 dopamine receptor (Homo sapiens, UniProt P35462); assay: Competitive radioligand binding, D3 dopamine receptor; conditions: D2:D3 Ki value ratio
[3] = target: T1, human D3 receptors expressed in stably transfected HEK 293 cells; conditions: result in words, previously reported; cited from earlier work
[4] = published data; ref Leopoldo et al, 2002. [24]; cited from earlier work

T1 sequence (P35462 whole entry): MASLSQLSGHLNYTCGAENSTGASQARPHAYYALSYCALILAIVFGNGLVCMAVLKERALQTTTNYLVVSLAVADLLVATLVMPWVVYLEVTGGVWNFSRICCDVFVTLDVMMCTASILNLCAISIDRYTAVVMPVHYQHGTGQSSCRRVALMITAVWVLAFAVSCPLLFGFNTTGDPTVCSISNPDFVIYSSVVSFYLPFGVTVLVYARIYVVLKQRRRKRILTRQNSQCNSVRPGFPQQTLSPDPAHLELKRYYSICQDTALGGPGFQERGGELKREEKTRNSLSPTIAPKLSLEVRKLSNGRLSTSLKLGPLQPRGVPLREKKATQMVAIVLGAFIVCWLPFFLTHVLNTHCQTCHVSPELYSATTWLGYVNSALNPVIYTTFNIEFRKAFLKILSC
human D3 dopamine receptor, sequence (P35462 whole entry): as above

## COc1ccccc1N1CCCN(CCCCNC(=O)c2ccc(CCF)cc2)CC1 [Compound 11e, 4-(2-Fluoroethyl)-N-(4-(4-(2-methoxyphenyl)-1,4-diazepan-1-yl)butyl)benzamide]
[1]
  efficacy class at D3 receptors: strong partial agonist

## COc1ccccc1N1CCCN(CCCCNC(=O)c2ccc(-c3ccsc3)cc2)CC1 [Compound 11a, N-(4-(4-(2-Methoxyphenyl)-1,4-diazepan-1-yl)butyl)-4-(thiophen-3-yl)benzamide]
[2]
  D2/D3 (Ki ratio): > 100

## COc1ccccc1N1CCN(CCCCNC(=O)c2ccc(CCF)cc2)CC1 [WC-44]
[3]
  efficacy class at D3 receptors: full agonist

## O=C(NCCCCN1CCN(c2cccc(Cl)c2Cl)CC1)c1ccc2c(c1)Cc1ccccc1-2 [NGB-2904]
[4]
  Log P: 6.94 ^h
